Results as given in patent US20240067702A1, “LACTAM-MODIFIED P[…]” (DONGBAO PURPLE STAR (HANGZHOU) BIOPHARMACEUTICAL CO., LTD., priority 2020, published 2024).
*1 amine or outer side, *2 acyl side, *3 side chain or, on linkers, in order; H or OH if unused. Where a SMILES comes first, the peptide text is derived from it. Bridges are numbered along the chain shown (N, C = ends). Side-chain parts run from the residue outwards. [ ]: non-standard residue; d: D form. The star is where a group is joined. C20 diacid = O=C(O)CCCCCCCCCCCCCCCCCCC(=O)*; γGlu = O=C(O)[C@H](CCC(=O)[*:2])N[*:1]; AEEA = NCCOCCOCC(=O)O; Aib = CC(C)(N)C(=O)O

Experiments:
[1] = Plasma stability (PLS) test, human plasma; format: in vitro ADME; details: pH 7.4, 37° C., up to 120 min, read-out: PLS (H/M) T1/2, H
GIPR = biological target: T1, GIPR (Homo sapiens, UniProt P48546); assay: GIPR agonist activity test in vitro (cAMP assay); format: cell-based; details: CHO host cell
T1 construct: host or cells: CHO
T1 sequence (P48546 22-466): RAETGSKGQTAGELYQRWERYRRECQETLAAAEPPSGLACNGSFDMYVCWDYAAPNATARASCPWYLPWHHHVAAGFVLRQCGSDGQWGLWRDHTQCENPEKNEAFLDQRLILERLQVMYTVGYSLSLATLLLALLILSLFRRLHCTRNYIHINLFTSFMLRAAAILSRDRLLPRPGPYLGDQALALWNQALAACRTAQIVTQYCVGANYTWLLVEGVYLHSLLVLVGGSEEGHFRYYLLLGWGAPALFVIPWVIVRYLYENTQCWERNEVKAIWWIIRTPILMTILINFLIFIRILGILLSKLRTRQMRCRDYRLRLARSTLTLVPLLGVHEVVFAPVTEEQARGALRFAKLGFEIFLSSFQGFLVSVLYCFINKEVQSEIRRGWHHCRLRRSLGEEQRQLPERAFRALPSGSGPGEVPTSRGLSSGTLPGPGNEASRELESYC
Procedure: The cell strains were constructed by Shanghai WuXi AppTec.
The test compound was serially diluted 4-fold with 10 points. The initial concentration was 30 μM, and the dilution was completed with Bravo.
1) 100 nL of the compound was transferred to OptiPlate-384 plate using Echo.
7) The GLP-1R/GIPR cell concentration was diluted to 2.0*10^5/mL with the experimental buffer.
8) […] of the diluted cell suspension was transferred into the OptiPlate-384 plate.
9) The diluted cell suspension was incubated at room temperature for 30 minutes.
2) 10 μL of cAMP detection reagent was added.
3) The OptiPlate-384 plate was covered with TopSeal-A film and incubated at room temperature for 60 minutes.
TopSeal-A was removed and read in EnVision.

human plasma albumin = assay: Plasma protein binding (PPB) test, human; format: in vitro ADME; design: key: NA means the plasma-protein binding is too high, and no free drug can be detected under a normal concentration of plasma protein; details: ultracentrifugation
Procedure: (§1) To study the binding of the test compounds to human/mouse plasma albumin.
(§2) 1. Matrix preparation: On the day of the experiment, the plasma was thawed in cold water and centrifuged at 3220 rpm for 5 min to remove all blood clots. The pH of the obtained plasma was measured and adjusted to 7.4±0.1 using 1% phosphoric acid or 1N sodium hydroxide as needed.
(§3) 2. Dilution steps of the test compounds: The test compounds were dissolved in dimethyl sulfoxide (DMSO) to prepare stock solutions at concentrations of 10 mM and 2 mM, respectively. A 40 μM working solution was prepared by diluting 2 μL of the stock solution (2 mM) with 98 μL of DMSO. A 400 μM working solution of the control compound was prepared by diluting 10 μL of the stock solution with 240 μL of DMSO. The working solution of the compound (5 μL) was mixed with the blank matrix (995 μL) at a ratio of 1:200 to prepare the loading matrix.
3.1 An equal amount of 30 μL of the loading matrix (n=2) was transferred to the sample collection plate to prepare samples of time 0 (TO) for residue determination. The samples were immediately matched to the corresponding blank buffer in a final volume of 60 μL with a 1:1 volume ratio of plasma to buffer in each well. Then, 60 μL of 4% H3PO4 in H2O and 480 μL of stop solution containing an internal standard were then added to the TO samples of the test compounds. […]

[2] = Pharmacokinetic evaluation in cynomolgus monkeys; format: in vivo; details: cynomolgus monkey, plasma, 0.02 mg/kg, single SC 0.02 mpk
Procedure: To test the pharmacokinetics of compounds in cynomolgus monkeys in vivo
The pharmacokinetic characteristics of the compounds in mammals after intravenous injection and subcutaneous injection were tested according to the standard protocol. In the experiment, the candidate compounds were formulated into clear solutions, and a single subcutaneous injection (SC, 0.02 mpk) was given to the cynomolgus monkeys. The vehicle for subcutaneous injection was citrate buffer (20 mM, pH=7). Whole blood was collected and prepared to obtain plasma. Drug concentration was analyzed by LC-MS/MS method, and pharmacokinetic parameters were calculated by Phoenix WinNonlin software.

[3] = Pharmacokinetic evaluation in C57BL/6 mice; format: in vivo; details: mouse, plasma, 0.048 mg/kg
Procedure: To test the pharmacokinetics of compounds in C57BL/6 mice in vivo
The pharmacokinetic characteristics of the compounds in rodents after intravenous injection and subcutaneous injection were tested according to the standard protocol. In the experiment, the candidate compounds were formulated into clear solutions, and a single intravenous injection (IV, 0.048 mpk) and subcutaneous injection (SC, 0.048 mpk) were given to the mice. The vehicle for intravenous injection was PBS buffer (pH=7), and the vehicle for subcutaneous injection was citrate buffer (20 mM, pH=7). Whole blood was collected and prepared to obtain plasma. Drug concentration was analyzed by LC-MS/MS method, and pharmacokinetic parameters were calculated by Phoenix WinNonlin software.

mouse plasma albumin = assay: Plasma protein binding (PPB) test, mouse; format: in vitro ADME; design: key to PPB % unbound (H/M), M: NA means the plasma-protein binding is too high, and no free drug can be detected under a normal concentration of plasma protein; details: ultracentrifugation
Procedure: as §1, §2, §3
3.1 An equal amount of 30 μL of the loading matrix (n=2) was transferred to the sample collection plate to prepare samples of time 0 (TO) for residue determination. The samples were immediately matched to the corresponding blank buffer in a final volume of 60 μL with a 1:1 volume ratio of plasma to buffer in each well. Then, 60 μL of 4% H3PO4 in H2O and 480 μL of stop solution containing an internal standard were then added to the TO samples of the test compounds. They were then stored at 2-8° C. with other samples pending for further processing.
3.2 The remaining plasma samples were pre-incubated in a carbon dioxide incubator at 37±1° C. for 30 min. The prepared protein-free samples (F samples) and loading matrix samples (230 μL) were transferred to polycarbonate tubes (n=2) and ultracentrifuged at 37° C. and 155000×g (35000 rpm) for 4 hours.
3.3 To prepare T samples (test samples), an additional matrix-containing sample was transferred to a separate 96-well plate (sample incubation plate) and incubated at 37° C. for 4 hours.
3.4 After centrifugation, 30 μL of protein-free sample and 30 μL of T sample were transferred from the second layer of supernatant (below the upper layer) to a new sample collection plate. Each sample was mixed with the corresponding blank buffer or matrix in a final volume of 60 μL with a matrix:buffer volume ratio of 1:1. 60 μL of 4% H3PO4 aqueous solution and 480 μL of stop solution (containing internal standard) were added to all samples. The mixture was centrifuged at 4000 rpm for 20 min, and 100 μL of the supernatant of each sample was taken for LC-MS/MS analysis.

CC[C@H](C)[C@H](NC(=O)[C@H](CC(C)C)NC(=O)[C@H](Cc1c[nH]c2ccccc12)NC(=O)[C@@H]1CCC(=O)NCCCC[C@H](NC(=O)[C@H](CCC(N)=O)NC(=O)[C@H](C)NC(=O)[C@H](CCCCNC(=O)COCCOCCNC(=O)COCCOCCNC(=O)CC[C@H](NC(=O)CCCCCCCCCCCCCCCCCCC(=O)O)C(=O)O)NC(=O)[C@H](CCCCN)NC(=O)[C@H](CC(=O)O)NC(=O)[C@H](CC(C)C)NC(=O)C(C)(C)NC(=O)[C@@H](NC(=O)[C@H](CO)NC(=O)[C@H](Cc2ccc(O)cc2)NC(=O)[C@H](CC(=O)O)NC(=O)[C@H](CO)NC(=O)[C@@H](NC(=O)[C@H](Cc2ccccc2)NC(=O)[C@@H](NC(=O)CNC(=O)[C@H](CCC(=O)O)NC(=O)C(C)(C)NC(=O)[C@@H](N)Cc2ccc(O)cc2)[C@@H](C)O)[C@@H](C)O)[C@@H](C)CC)C(=O)N[C@@H](C)C(=O)N[C@@H](Cc2ccccc2)C(=O)N[C@@H](C(C)C)C(=O)N1)C(=O)N[C@@H](C)C(=O)NCC(=O)NCC(=O)N1CCC[C@H]1C(=O)N[C@@H](CO)C(=O)N[C@@H](CO)C(=O)NCC(=O)N[C@@H](C)C(=O)N1CCC[C@H]1C(=O)N1CCC[C@H]1C(=O)N1CCC[C@H]1C(=O)N[C@@H](CO)C(N)=O [WX-001] (H-Y[Aib]EGTFTSDYSI[Aib]LDKK([AEEA-AEEA-γGlu-C20 diacid])AQKAFVEWLIAGGPSSGAPPPS-NH2; lactam 20-24)
half-life at 2 μM [1]: > 289 min
EC50 (GIPR; GIPR Agonist Activity EC50 (+) 1% HSA, with 1% HSA): 23 nM
EC50 (GIPR; GIPR Agonist Activity EC50 (−) 1% HSA, without 1% HSA): 0.44 nM
PPB % unbound (H/M), H (human plasma albumin): NA/NA
Cmax [2]: 30 nM
Tmax [2]: 21 h
half-life ([2]; read-out: Half-life T1/2 (converted)): 3.33 days
AUC(0-t) ([2]; read-out: SC Concentration Integral AUC0-240 h): 3.97 µM·h
half-life ([3]; 0.048 mpk IV/SC, read-out: Half-life T1/2 (converted)): 930 min
clearance ([3]; IV 0.048 mpk): 5.28 mL/h/kg
AUC(0-t) ([3]; SC 0.048 mpk, read-out: SC Concentration Integral AUC0-72 h): 1.55 µM·h
bioavailability ([3]; subcutaneous, SC 0.048 mpk vs IV 0.048 mpk, read-out: Bioavailability F): 85.5%
PPB % unbound (H/M), M (mouse plasma albumin): NA/NA
